Series [1] can be described thus: Dialysis of artificial plasma with 5 mM etidronate against dialysing liquid without etidronate. In kind it is in vitro ADME. The settings on record: after a 20-hour period, pH 7.4. As for the experimental part: An artificial plasma was prepared with 5 mM of etidronate, regulating the ionic strength with 0.15 M NaCl. 25 ml of this solution were dialysed for 20 hours against a 1-l volume of a 0.15 M NaCl solution without etidronate (dialysing liquid model). The pH of both solutions was adjusted to 7.4 using bicarbonate buffer.
(§1) 5-ml aliquots of the dialysing liquid were collected at times 0, 1, 3, 6 and 20 hours, and the quantity of etidronate was determined in each of them. Moreover, the concentration of etidronate in the artificial plasma was determined at times 0 and 20 hours.

Series [2] in a line: Dialysis of artificial plasma with 5 mM etidronate against dialysing liquid with the same concentration of etidronate. In kind it is in vitro ADME. The settings on record: 20 hours dialysis; 5 mM etidronate in both plasma and dialysing liquid, pH 7.4. As for the experimental part: An artificial plasma was prepared with 5 mM of etidronate, regulating the ionic strength with 0.15 M NaCl. 25 ml of this solution were dialysed for 20 hours against a 1-l volume of a 0.15 M NaCl solution with the same concentration of etidronate as the plasma. The pH of both solutions was adjusted to 7.4 using bicarbonate buffer.
as §1

A short description of series [3]: Dialysis of artificial plasma with 1 mM etidronate against dialysing liquid with 5 times greater etidronate concentration. Type of series: in vitro ADME. As for the experimental part:
An artificial plasma was prepared with 1 mM of etidronate, regulating the ionic strength with 0.15 M NaCl. 25 ml of this solution were dialysed for 20 hours against a 1-l volume of a 0.15 M NaCl solution with a concentration of etidronate 5 times greater than that of the plasma. The pH of both solutions was adjusted to 7.4 using bicarbonate buffer.
as §1

Series [4] in a line: Dialysis of artificial plasma with 1.5 mM phytate against dialysing liquid without phytate. Type of series: in vitro ADME. The settings on record: after a 20-hour period, pH 7.4. As for the experimental part: An artificial plasma (liquid with a composition similar to that of plasma) was prepared with 1.5 mM phytate, regulating the ionic strength with 0.15 M NaCl. 25 ml of this solution were dialysed for 20 hours against a 1-l volume of a 0.15 M NaCl solution without phytate (dialysing liquid model). The pH of both solutions was adjusted to 7.4 using bicarbonate buffer. 5-ml aliquots of the dialysing liquid were collected at times 0, 1, 3, 6 and 20 hours, and the quantity of phytate in each of them was determined. Moreover, the concentration of phytate in the artificial plasma was determined at times 0 and 20 hours.

Series [5] is described as follows: Dialysis of artificial plasma with 1.5 mM phytate against dialysing liquid with the same concentration of phytate. In kind it is in vitro ADME. The conditions noted are these: 20 hours dialysis; 1.5 mM phytate in both plasma and dialysing liquid, pH 7.4. As for the experimental part:
An artificial plasma was prepared with 1.5 mM of phytate, regulating the ionic strength with 0.15 M NaCl. 25 ml of this solution were dialysed for 20 hours against a 1-l volume of a 0.15 M NaCl solution with the same concentration of phytate as the plasma. The pH of both solutions was adjusted to 7.4 using bicarbonate buffer. 5-ml aliquots of the dialysing liquid were collected at times 0, 1, 3, 6 and 20 hours, and the quantity of phytate was determined in each of them. Moreover, the concentration of phytate in the artificial plasma was determined at times 0 and 20 hours.

A short description of series [6]: Dialysis of artificial plasma with 300 μM phytate against dialysing liquid with 5 times greater phytate concentration. In kind it is in vitro ADME. As for the experimental part: An artificial plasma was prepared with 300 μM of phytate, regulating the ionic strength with 0.15 M NaCl. 25 ml of this solution were dialysed for 20 hours against a 1-l volume of a 0.15 M NaCl solution with a concentration of phytate 5 times greater than that of the plasma. The pH of both solutions was adjusted to 7.4 using bicarbonate buffer. 5-ml aliquots of the dialysing liquid were collected at times 0, 1, 3, 6 and 20 hours, and the quantity of phytate was determined in each of them. Moreover, the concentration of phytate in the artificial plasma was determined at times 0 and 20 hours.

A short description of series [7]: Intravenous administration to rats on a diet without phytate; urinary and plasma phytate. Type of series: in vivo, male Wistar rats. The settings on record: treated group, 3 intravenous doses of 0.61 mmol/kg (400 mg/kg) 12 hours apart. As for the experimental part: 6 male Wistar rats approximately 250 g in weight were acclimated from 7 dias in the animal house (T=[…] and humidity=60±5%) with 12:12-hour light-darkness cycles. The rats were housed in Plexiglas cages, with one animal per cage, and fed with food and drink ad libitum.
Following the acclimation period, the animals were randomly divided into two groups with 3 rats each, a control group (with a diet without phytate, thereby simulating a post-dialysis physiological condition) and a treated group, which received 3 intravenous doses of 0.61 mmol/kg (400 mg/kg) separated by 12-hour periods. Following the last administration, 24-hour urine samples were collected in order to determine the phytate and, subsequently, the animals were anaesthesised and blood samples were collected.
The procedures used in this experiment were performed in accordance with Directive 86/609/EEC regarding the protection of animals used for experimental and scientific purposes.

`CC(O)(P(=O)(O)O)P(=O)(O)O` [etidronate, etidronic acid]: the “quantity of etidronate in the dialysis solution, as share of the initial quantity in the artificial plasma” value in series [1] is recorded as 95.6%. In addition, the “variation in the concentration of etidronate in the plasma and the dialysing liquid” value in series [2] was “no variations”. For the same molecule, in series [3] (20-hour period, dialysis liquid with etidronate concentration greater than that of the plasma), the “change of plasma concentration of etidronate (in words)” value is listed as “increase the plasma concentration”. In addition, in series [3] (20 hours dialysis, plasma 1 mM etidronate, dialysis liquid 5 times greater, pH 7.4), the “etidronate from the dialysis liquid that enters into the artificial plasma” value was “up to 1.65%”. In addition, the “increase of the concentration of etidronate in the artificial plasma” value in series [3] (20 hours dialysis, plasma 1 mM etidronate, dialysis liquid 5 times greater, from ratio of initial volumes and concentrations) was determined as 330%.

With `O=P(O)(O)O[C@H]1[C@H](OP(=O)(O)O)[C@@H](OP(=O)(O)O)[C@H](OP(=O)(O)O)[C@@H](OP(=O)(O)O)[C@H]1OP(=O)(O)O` [phytate, myo-inositol hexaphosphate], in series [4], the “quantity of phytate in the dialysis solution, as share of the initial quantity in the artificial plasma” value amounted to 40%. Also, the “variation in the concentration of phytate in the plasma and the dialysing liquid” value in series [5] is “no variations”. In series [6] (20-hour period, dialysis liquid with phytate concentration greater than that of the plasma), the “change of plasma concentration of phytate (in words)” value is “increase the plasma concentration”. For the same molecule, the “phytate from the dialysis liquid that enters into the artificial plasma” value in series [6] (20 hours dialysis, plasma 300 μM phytate, dialysis liquid 5 times greater, pH 7.4) is “up to 0.75%”. Moreover, the “increase of the concentration of phytate in the artificial plasma” value in series [6] (20 hours dialysis, plasma 300 μM phytate, dialysis liquid 5 times greater, from ratio of initial volumes and concentrations) turned out to be 140%. Moreover, in series [7] (male, Wistar, rat, plasma, blood 24 hours after last administration, read-out: plasma level of phytate), the concentration at 24 h amounted to 1000 ng/mL. For the same molecule, the “urinary excretion of phytate” value in series [7] (24-hour urine after last administration) came to 72 ± 10 µg.

For the origin of these results see patent US8778912B2, “Composition of dialysis liquid comprising crystallisation inhibitor substances” (Universitat de les Illes Balears, priority 2008, dated 2014).
